Values joined by “and” are separate entries in the source; they are usually repeats but may differ in a detail not shown here. Identical values can stand only once.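 Assay format: 96-well plates, 48-hour exposure. Here, GI50 denotes the concentration required for 50% inhibition of growth. TGI is the concentration that stops growth completely.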
Legend:
Assay in all cases: inhibition of tumour cell growth, NCI panel, 48 h
HT29 colon = test system: HT29 colon
SK-MEL-28 melanoma = test system: SK-MEL-28 melanoma
SK-OV-3 ovarian = test system: SK-OV-3 ovarian
SF-268 CNS = test system: SF-268 CNS
SNB-19 CNS = test system: SNB-19 CNS
UACC-257 melanoma = test system: UACC-257 melanoma
OVCAR-4 ovarian = test system: OVCAR-4 ovarian
TK-10 renal = test system: TK-10 renal
IGROV1 ovarian = test system: IGROV1 ovarian
HCT-116 colon = test system: HCT-116 colon

Compound: Cn1cc(C2=C(c3c4n(c5ccccc35)CCNC4)C(=O)NC2=O)c2ccccc21
- GI50 (HT29 colon): 5.2 µM
- TGI (HT29 colon): > 25 µM
- GI50 (SK-MEL-28 melanoma): > 15.3 µM
- TGI (SK-MEL-28 melanoma): > 25 µM
- GI50 (SK-OV-3 ovarian): 8.84 µM
- TGI (SK-OV-3 ovarian): > 25 µM
- GI50 (SF-268 CNS): 10.5 µM
- TGI (SF-268 CNS): > 25 µM
- GI50 (SNB-19 CNS): > 22 µM
- TGI (SNB-19 CNS): > 25 µM
- GI50 (UACC-257 melanoma): > 11.4 µM
- TGI (UACC-257 melanoma): > 20.2 µM
- GI50 (OVCAR-4 ovarian): > 9.74 µM
- TGI (OVCAR-4 ovarian): > 25 µM
- GI50 (TK-10 renal): 11.3 µM
- TGI (TK-10 renal): > 25 µM
- GI50 (IGROV1 ovarian): > 10 µM
- TGI (IGROV1 ovarian): > 21.5 µM
- GI50 (HCT-116 colon): 9.68 µM
- TGI (HCT-116 colon): > 25 µM

Compound: O=[N+]([O-])c1ccc(/C=C/c2nc3ccc(Cl)cc3[nH]2)cc1
- GI50 (HT29 colon): 17.8 µM
- TGI (HT29 colon): > 100 µM
- GI50 (SK-MEL-28 melanoma): > 100 µM
- TGI (SK-MEL-28 melanoma): > 100 µM
- GI50 (SK-OV-3 ovarian): > 100 µM
- TGI (SK-OV-3 ovarian): > 100 µM
- GI50 (SF-268 CNS): > 100 µM
- TGI (SF-268 CNS): > 100 µM
- GI50 (SNB-19 CNS): > 100 µM
- TGI (SNB-19 CNS): > 100 µM
- GI50 (UACC-257 melanoma): > 100 µM
- TGI (UACC-257 melanoma): > 100 µM
- GI50 (OVCAR-4 ovarian): 74 µM
- TGI (OVCAR-4 ovarian): > 100 µM
- GI50 (TK-10 renal): 28.2 µM
- TGI (TK-10 renal): > 100 µM
- GI50 (IGROV1 ovarian): 35.7 µM
- TGI (IGROV1 ovarian): > 100 µM
- GI50 (HCT-116 colon): 15.7 µM
- TGI (HCT-116 colon): 37.6 µM

Compound: O=C(/C=C/C12c3ccccc3C(c3ccccc31)C1C(=O)N(c3ccc(Cl)cc3)C(=O)C12)c1ccccn1 (stereo not given)
- GI50 (HT29 colon): 0.335 µM
- TGI (HT29 colon): 8.67 µM
- GI50 (SK-MEL-28 melanoma): 0.342 µM
- TGI (SK-MEL-28 melanoma): 1.61 µM
- GI50 (SK-OV-3 ovarian): 1.98 µM
- TGI (SK-OV-3 ovarian): > 100 µM
- GI50 (SF-268 CNS): 0.672 µM
- TGI (SF-268 CNS): > 28.8 µM
- GI50 (SNB-19 CNS): 0.426 µM
- TGI (SNB-19 CNS): 2 µM
- GI50 (UACC-257 melanoma): 0.39 µM
- TGI (UACC-257 melanoma): 1.96 µM
- GI50 (OVCAR-4 ovarian): 0.478 µM
- TGI (OVCAR-4 ovarian): > 30.9 µM
- GI50 (TK-10 renal): 1.46 µM
- TGI (TK-10 renal): 4.87 µM
- GI50 (IGROV1 ovarian): 0.248 µM
- TGI (IGROV1 ovarian): 0.643 µM
- GI50 (HCT-116 colon): 0.183 µM
- TGI (HCT-116 colon): 0.423 µM

Compound: CC1(C)NC(=O)N(CCCCCCN2C(=O)NC(C)(C)C2=O)C1=O
- TGI (HT29 colon): > 100 µM
- TGI (SK-MEL-28 melanoma): > 100 µM
- TGI (SK-OV-3 ovarian): > 100 µM
- TGI (SF-268 CNS): > 100 µM
- TGI (SNB-19 CNS): > 100 µM
- TGI (UACC-257 melanoma): > 100 µM
- TGI (OVCAR-4 ovarian): > 100 µM
- TGI (TK-10 renal): > 100 µM
- TGI (IGROV1 ovarian): > 100 µM
- TGI (HCT-116 colon): > 100 µM

Compound: Cc1ccc(F)c(NC(=O)Nc2ccc(-c3cccc4[nH]nc(N)c34)cc2)c1
- GI50 (HT29 colon): 2.46 µM and 2.86 µM
- TGI (HT29 colon): 6.93 µM and > 10 µM
- GI50 (SK-MEL-28 melanoma): 3.94 µM and 3.85 µM
- TGI (SK-MEL-28 melanoma): 18.7 µM and > 10 µM
- GI50 (SK-OV-3 ovarian): 10.5 µM
- TGI (SK-OV-3 ovarian): 23.5 µM and > 10 µM
- GI50 (SF-268 CNS): 2.92 µM and 3.25 µM
- TGI (SF-268 CNS): 11.2 µM and > 10 µM
- GI50 (SNB-19 CNS): 3.79 µM and 3.96 µM
- TGI (SNB-19 CNS): 15.8 µM and > 10 µM
- GI50 (UACC-257 melanoma): 4.39 µM and 5.34 µM
- TGI (UACC-257 melanoma): 16.7 µM and > 10 µM
- GI50 (OVCAR-4 ovarian): 3.1 µM and 3.8 µM
- TGI (OVCAR-4 ovarian): 17.1 µM and > 10 µM
- GI50 (TK-10 renal): 3.6 µM and 2.84 µM
- TGI (TK-10 renal): 14.6 µM and > 10 µM
- GI50 (IGROV1 ovarian): 4 µM and 3.13 µM
- TGI (IGROV1 ovarian): 15.8 µM and > 10 µM
- GI50 (HCT-116 colon): 3.12 µM and 3.5 µM
- TGI (HCT-116 colon): 11.4 µM and > 10 µM

Compound: O=C(O)CCCCn1ccc(=O)[nH]c1=O
- TGI (HT29 colon): > 100 µM
- TGI (SK-MEL-28 melanoma): > 100 µM
- TGI (SK-OV-3 ovarian): > 100 µM
- TGI (SF-268 CNS): > 100 µM
- TGI (SNB-19 CNS): > 100 µM
- TGI (UACC-257 melanoma): > 100 µM
- TGI (OVCAR-4 ovarian): > 100 µM
- TGI (TK-10 renal): > 100 µM
- TGI (IGROV1 ovarian): > 100 µM
- TGI (HCT-116 colon): > 100 µM

Compound: COC(=O)c1ccc2nc(-c3cc4ccccc4n3C)n(CCCCOc3cc4c(cc3OC)C(=O)N3CCC[C@H]3C=N4)c2c1
- GI50 (HT29 colon): 0.929 µM
- TGI (HT29 colon): 5.49 µM
- GI50 (SK-MEL-28 melanoma): 0.652 µM
- TGI (SK-MEL-28 melanoma): 2.3 µM
- GI50 (SK-OV-3 ovarian): 1.86 µM
- TGI (SK-OV-3 ovarian): 4.67 µM
- GI50 (SF-268 CNS): 0.29 µM
- TGI (SF-268 CNS): 0.925 µM
- GI50 (SNB-19 CNS): 2.15 µM
- TGI (SNB-19 CNS): 7.07 µM
- GI50 (UACC-257 melanoma): 1.17 µM
- TGI (UACC-257 melanoma): 3.78 µM
- GI50 (OVCAR-4 ovarian): 1.54 µM
- TGI (OVCAR-4 ovarian): 11.4 µM
- GI50 (TK-10 renal): 0.43 µM
- TGI (TK-10 renal): 3.29 µM
- GI50 (IGROV1 ovarian): 0.254 µM
- TGI (IGROV1 ovarian): 0.889 µM
- GI50 (HCT-116 colon): 0.528 µM
- TGI (HCT-116 colon): 2.61 µM

From PubChem BioAssay (NCI)
